Results as given in the kinase profiling compilation of Christmann-Franck et al. (2016).

Columns and labels:
Experiment in all cases: split-luciferase competition binding
PRKCE (human) = PRKCE (human) (UniProt Q02156); conditions: compound 10.0 µM
AKT1 (human) = AKT1 (human) (UniProt P31749); conditions: compound 10.0 µM
RPS6KA3 KD1 (human) = RPS6KA3 KD1 (human) (UniProt P51812); conditions: compound 10.0 µM
PRKCG (human) = PRKCG (human) (UniProt P05129); conditions: compound 10.0 µM
PRKCH (human) = PRKCH (human) (UniProt P24723); conditions: compound 10.0 µM
PRKACB (human) = PRKACB (human) (UniProt P22694); conditions: compound 10.0 µM
PRKCI (human) = PRKCI (human) (UniProt P41743); conditions: compound 10.0 µM
RPS6KA1 KD1 (human) = RPS6KA1 KD1 (human) (UniProt Q15418); conditions: compound 10.0 µM
AKT2 (human) = AKT2 (human) (UniProt P31751); conditions: compound 10.0 µM
AURKB (human) = AURKB (human) (UniProt Q96GD4); conditions: compound 10.0 µM
PRKCQ (human) = PRKCQ (human) (UniProt Q04759); conditions: compound 10.0 µM
AURKC (human) = AURKC (human) (UniProt Q9UQB9); conditions: compound 10.0 µM
PRKACA (mouse) = conditions: compound 10.0 µM; accession and sequence are those of the human protein
SGK2 (human) = SGK2 (human) (UniProt Q9HBY8); conditions: compound 10.0 µM
PKN1 (human) = PKN1 (human) (UniProt Q16512); conditions: compound 10.0 µM
AURKA (human) = AURKA (human) (UniProt O14965); conditions: compound 10.0 µM
AKT3 (human) = AKT3 (human) (UniProt Q9Y243); conditions: compound 10.0 µM
DMPK (human) = DMPK (human) (UniProt Q09013); conditions: compound 10.0 µM
SGK3 (human) = SGK3 (human) (UniProt Q96BR1); conditions: compound 10.0 µM
RPS6KA6 KD1 (human) = RPS6KA6 KD1 (human) (UniProt Q9UK32); conditions: compound 10.0 µM
RPS6KA2 KD1 (human) = RPS6KA2 KD1 (human) (UniProt Q15349); conditions: compound 10.0 µM
PRKCD (human) = PRKCD (human) (UniProt Q05655); conditions: compound 10.0 µM
RPS6KA5 KD1 (human) = RPS6KA5 KD1 (human) (UniProt O75582); conditions: compound 10.0 µM
STK32B (human) = STK32B (human) (UniProt Q9NY57); conditions: compound 10.0 µM
RPS6KA4 KD1 (human) = RPS6KA4 KD1 (human) (UniProt O75676); conditions: compound 10.0 µM
PDPK1 (human) = PDPK1 (human) (UniProt O15530); conditions: compound 10.0 µM
PRKX (human) = PRKX (human) (UniProt P51817); conditions: compound 10.0 µM

SGK2 (human), sequence (Q9HBY8 whole entry, looked up): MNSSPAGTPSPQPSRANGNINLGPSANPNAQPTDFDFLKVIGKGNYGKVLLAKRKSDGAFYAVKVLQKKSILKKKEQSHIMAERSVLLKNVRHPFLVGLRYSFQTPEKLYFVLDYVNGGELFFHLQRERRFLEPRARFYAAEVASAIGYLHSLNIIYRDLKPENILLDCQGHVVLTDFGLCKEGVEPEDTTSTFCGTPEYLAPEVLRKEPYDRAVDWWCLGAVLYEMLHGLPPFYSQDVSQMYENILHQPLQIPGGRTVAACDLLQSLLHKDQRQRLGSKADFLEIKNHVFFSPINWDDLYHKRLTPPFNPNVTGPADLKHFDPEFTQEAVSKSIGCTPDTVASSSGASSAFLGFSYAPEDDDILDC
PRKCI (human), sequence (P41743 whole entry, looked up): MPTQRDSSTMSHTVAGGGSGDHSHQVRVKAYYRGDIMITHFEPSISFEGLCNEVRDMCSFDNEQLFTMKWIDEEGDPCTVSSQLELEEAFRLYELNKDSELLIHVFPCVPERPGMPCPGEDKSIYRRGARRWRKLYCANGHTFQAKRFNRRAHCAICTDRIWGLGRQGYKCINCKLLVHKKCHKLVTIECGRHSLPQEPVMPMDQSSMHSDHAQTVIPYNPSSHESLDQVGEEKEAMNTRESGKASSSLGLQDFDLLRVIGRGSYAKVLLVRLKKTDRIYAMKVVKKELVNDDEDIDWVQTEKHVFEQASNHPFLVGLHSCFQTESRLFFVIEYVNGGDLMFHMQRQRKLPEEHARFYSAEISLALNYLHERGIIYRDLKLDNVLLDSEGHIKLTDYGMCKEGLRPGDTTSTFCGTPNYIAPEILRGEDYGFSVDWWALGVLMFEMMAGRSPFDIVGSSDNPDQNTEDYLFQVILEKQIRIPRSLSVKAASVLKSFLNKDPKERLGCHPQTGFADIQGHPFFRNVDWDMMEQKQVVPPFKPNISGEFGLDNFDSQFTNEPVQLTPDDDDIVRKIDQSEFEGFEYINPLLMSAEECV
PKN1 (human), sequence (Q16512 whole entry, looked up): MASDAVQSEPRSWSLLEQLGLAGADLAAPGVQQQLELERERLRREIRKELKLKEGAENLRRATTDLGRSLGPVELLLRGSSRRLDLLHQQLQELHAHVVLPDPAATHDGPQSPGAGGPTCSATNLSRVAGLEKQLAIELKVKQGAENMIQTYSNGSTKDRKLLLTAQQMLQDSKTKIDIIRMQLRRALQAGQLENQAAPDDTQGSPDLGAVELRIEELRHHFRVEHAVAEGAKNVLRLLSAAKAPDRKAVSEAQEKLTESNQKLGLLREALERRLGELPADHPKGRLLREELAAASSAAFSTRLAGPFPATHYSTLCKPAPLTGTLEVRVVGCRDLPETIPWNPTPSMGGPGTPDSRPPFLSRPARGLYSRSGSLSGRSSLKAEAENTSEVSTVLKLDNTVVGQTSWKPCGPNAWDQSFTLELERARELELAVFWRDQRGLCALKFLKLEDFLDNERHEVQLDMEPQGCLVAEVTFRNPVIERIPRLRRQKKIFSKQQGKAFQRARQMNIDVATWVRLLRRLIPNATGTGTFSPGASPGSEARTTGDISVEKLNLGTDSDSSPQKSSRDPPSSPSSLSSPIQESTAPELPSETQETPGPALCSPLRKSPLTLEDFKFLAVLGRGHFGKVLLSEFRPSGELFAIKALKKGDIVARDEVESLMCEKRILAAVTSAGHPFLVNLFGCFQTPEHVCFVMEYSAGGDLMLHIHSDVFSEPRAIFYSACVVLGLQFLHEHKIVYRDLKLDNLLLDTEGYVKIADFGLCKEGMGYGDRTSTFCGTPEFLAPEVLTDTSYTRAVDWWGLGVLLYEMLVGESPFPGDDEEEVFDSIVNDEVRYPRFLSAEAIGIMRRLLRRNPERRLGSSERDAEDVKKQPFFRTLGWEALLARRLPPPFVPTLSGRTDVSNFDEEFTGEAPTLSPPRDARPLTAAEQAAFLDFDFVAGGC
RPS6KA6 KD1 (human), sequence (Q9UK32 whole entry, looked up): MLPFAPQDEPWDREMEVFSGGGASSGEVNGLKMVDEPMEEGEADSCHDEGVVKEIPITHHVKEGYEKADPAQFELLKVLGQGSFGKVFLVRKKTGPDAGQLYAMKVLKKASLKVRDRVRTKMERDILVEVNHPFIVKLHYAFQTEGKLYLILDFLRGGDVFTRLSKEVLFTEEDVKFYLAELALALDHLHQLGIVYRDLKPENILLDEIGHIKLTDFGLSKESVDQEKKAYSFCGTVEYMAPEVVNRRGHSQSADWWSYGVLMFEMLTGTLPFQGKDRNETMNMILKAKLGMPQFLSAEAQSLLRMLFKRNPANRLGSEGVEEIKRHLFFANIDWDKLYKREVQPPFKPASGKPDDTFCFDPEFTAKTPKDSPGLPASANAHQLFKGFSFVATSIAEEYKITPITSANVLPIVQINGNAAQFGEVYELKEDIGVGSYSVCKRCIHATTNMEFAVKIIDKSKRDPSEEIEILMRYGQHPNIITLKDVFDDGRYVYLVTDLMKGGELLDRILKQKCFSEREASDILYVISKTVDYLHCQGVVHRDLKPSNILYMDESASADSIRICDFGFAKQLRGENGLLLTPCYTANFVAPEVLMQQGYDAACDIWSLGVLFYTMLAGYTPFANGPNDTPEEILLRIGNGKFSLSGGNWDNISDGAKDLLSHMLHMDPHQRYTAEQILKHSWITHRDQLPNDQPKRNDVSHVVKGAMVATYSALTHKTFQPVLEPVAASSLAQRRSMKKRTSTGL
AKT2 (human), sequence (P31751 whole entry, looked up): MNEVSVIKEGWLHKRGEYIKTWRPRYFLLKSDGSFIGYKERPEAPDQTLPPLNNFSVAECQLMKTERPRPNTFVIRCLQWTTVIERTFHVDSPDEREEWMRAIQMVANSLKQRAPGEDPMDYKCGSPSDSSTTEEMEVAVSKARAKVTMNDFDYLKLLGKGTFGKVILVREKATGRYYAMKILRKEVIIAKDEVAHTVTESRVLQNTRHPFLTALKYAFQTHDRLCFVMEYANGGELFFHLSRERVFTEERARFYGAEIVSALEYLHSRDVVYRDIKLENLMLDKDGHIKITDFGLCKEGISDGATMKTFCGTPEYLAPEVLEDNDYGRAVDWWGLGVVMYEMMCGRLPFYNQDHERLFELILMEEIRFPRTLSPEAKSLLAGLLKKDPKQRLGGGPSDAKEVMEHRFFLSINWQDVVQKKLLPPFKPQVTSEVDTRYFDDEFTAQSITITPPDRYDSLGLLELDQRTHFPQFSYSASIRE
AURKA (human), sequence (O14965 whole entry, looked up): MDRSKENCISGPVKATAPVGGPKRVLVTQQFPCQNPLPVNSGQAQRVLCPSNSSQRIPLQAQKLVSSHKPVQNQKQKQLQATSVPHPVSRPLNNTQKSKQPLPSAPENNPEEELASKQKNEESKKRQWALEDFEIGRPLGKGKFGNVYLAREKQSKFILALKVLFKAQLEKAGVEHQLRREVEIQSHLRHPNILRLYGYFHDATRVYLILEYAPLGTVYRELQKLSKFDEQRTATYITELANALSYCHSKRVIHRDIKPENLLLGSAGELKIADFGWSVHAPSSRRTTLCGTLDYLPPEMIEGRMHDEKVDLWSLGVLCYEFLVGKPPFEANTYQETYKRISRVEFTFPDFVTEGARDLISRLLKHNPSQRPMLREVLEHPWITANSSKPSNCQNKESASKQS
PRKCD (human), sequence (Q05655 whole entry, looked up): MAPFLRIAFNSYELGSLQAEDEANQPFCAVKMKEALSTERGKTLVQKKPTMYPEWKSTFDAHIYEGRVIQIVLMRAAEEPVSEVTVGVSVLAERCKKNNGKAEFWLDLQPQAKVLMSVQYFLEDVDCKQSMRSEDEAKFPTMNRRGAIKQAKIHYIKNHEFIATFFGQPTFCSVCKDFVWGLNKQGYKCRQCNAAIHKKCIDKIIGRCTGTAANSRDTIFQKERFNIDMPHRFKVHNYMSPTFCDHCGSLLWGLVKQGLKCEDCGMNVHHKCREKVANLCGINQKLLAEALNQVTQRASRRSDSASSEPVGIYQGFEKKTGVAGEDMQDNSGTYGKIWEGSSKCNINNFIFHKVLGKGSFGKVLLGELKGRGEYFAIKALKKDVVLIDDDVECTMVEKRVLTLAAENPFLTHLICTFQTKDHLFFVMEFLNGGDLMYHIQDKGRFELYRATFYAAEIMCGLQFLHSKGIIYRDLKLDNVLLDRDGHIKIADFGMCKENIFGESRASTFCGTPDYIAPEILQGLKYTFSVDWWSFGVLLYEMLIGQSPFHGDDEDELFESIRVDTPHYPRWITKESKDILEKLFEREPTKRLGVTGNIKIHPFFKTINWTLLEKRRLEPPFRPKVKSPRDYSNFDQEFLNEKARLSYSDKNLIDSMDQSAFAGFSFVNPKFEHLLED
PRKCE (human), sequence (Q02156 whole entry, looked up): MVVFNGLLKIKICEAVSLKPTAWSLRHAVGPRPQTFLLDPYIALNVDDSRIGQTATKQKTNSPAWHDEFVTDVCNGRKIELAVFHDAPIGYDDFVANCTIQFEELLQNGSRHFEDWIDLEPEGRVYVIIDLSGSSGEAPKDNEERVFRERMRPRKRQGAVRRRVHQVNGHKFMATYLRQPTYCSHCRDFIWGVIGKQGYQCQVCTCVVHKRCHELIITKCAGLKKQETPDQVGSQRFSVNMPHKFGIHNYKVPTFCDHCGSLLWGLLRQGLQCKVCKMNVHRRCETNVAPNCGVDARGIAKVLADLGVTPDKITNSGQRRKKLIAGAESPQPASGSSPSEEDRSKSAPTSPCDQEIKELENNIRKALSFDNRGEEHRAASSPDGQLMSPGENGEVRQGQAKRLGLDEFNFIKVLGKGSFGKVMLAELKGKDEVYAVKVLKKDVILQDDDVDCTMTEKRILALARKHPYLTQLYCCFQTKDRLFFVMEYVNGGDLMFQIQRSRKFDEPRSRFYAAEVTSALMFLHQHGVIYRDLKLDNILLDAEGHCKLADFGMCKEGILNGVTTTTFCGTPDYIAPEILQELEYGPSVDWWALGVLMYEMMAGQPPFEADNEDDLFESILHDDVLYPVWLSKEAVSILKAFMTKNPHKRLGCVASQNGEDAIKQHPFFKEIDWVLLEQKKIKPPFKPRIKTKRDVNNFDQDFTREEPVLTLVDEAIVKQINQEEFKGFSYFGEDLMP

| inhibition (PRKCE (human)) [%] | inhibition (AKT1 (human)) [%] | inhibition (RPS6KA3 KD1 (human)) [%] | inhibition (PRKCG (human)) [%] | inhibition (PRKCH (human)) [%] | inhibition (PRKACB (human)) [%] | inhibition (PRKCI (human)) [%] | inhibition (RPS6KA1 KD1 (human)) [%] | inhibition (AKT2 (human)) [%] | inhibition (AURKB (human)) [%] | inhibition (PRKCQ (human)) [%] | inhibition (AURKC (human)) [%] | inhibition (PRKACA (mouse)) [%] | inhibition (SGK2 (human)) [%] | inhibition (PKN1 (human)) [%] | inhibition (AURKA (human)) [%] | inhibition (AKT3 (human)) [%] | inhibition (DMPK (human)) [%] | inhibition (SGK3 (human)) [%] | inhibition (RPS6KA6 KD1 (human)) [%] | SMILES | also measured |
| --- | --- | --- | --- | --- | --- | --- | --- | --- | --- | --- | --- | --- | --- | --- | --- | --- | --- | --- | --- | --- | --- |
| 0 | 5 | 0 | 0 | 0 | 0 | 0 | 0 | 0 | 4 | 0 | 0 | 5 | 0 | 6 | 0 | 0 | 0 | 0 | 0 | Cn1cnc2c(NCc3ccccc3)nc(NCCO)nc21 | inhibition (RPS6KA2 KD1 (human)): 0%; inhibition (PRKCD (human)): 3%; inhibition (RPS6KA5 KD1 (human)): 0%; inhibition (STK32B (human)): 0%; inhibition (RPS6KA4 KD1 (human)): 0%; inhibition (PDPK1 (human)): 0%; inhibition (PRKX (human)): 7% |
| 0 | 0 | 0 | 0 | 0 | 0 | 0 | 16 | 0 | 0 | 0 | 0 | 0 | 0 | 0 | 0 | 0 | 0 | 0 | 0 | O=c1cc(N2CCOCC2)oc2c(-c3ccccc3)cccc12 | inhibition (RPS6KA2 KD1 (human)): 0%; inhibition (PRKCD (human)): 0%; inhibition (RPS6KA5 KD1 (human)): 4%; inhibition (STK32B (human)): 0%; inhibition (RPS6KA4 KD1 (human)): 0%; inhibition (PDPK1 (human)): 0%; inhibition (PRKX (human)): 0% |
| 0 | 0 | 3 | 0 | 0 | 1 | 0 | 0 | 0 | 2 | 0 | 1 | 0 | 0 | 0 | 6 | 0 | 0 | 0 | 6 | Brc1c(Br)c(Br)c2[nH]nnc2c1Br | inhibition (RPS6KA2 KD1 (human)): 4%; inhibition (PRKCD (human)): 0%; inhibition (RPS6KA5 KD1 (human)): 0%; inhibition (STK32B (human)): 4%; inhibition (RPS6KA4 KD1 (human)): 0%; inhibition (PDPK1 (human)): 0%; inhibition (PRKX (human)): 2% |
